Experimental data taken from US8557796B2, “Substituted 1-oxa-2,8-diaza-spiro [4,5] dec-2-ene derivatives and related treatment methods” (Gruenenthal GmbH, priority 2001, dated 2013).

Target: T1, NA transporter (Rattus norvegicus, UniProt Q9WTR4)
T1 construct: synaptosomes from rat brain regions were freshly isolated; from tissue; host or cells: P2 synaptosome fraction from hypothalamus of male rat brain
Assay: Noradrenalin uptake inhibition (NA-uptake) in synaptosomes
Assay type: biochemical
Conditions: rat hypothalamus synaptosomes
Excerpt: Tests on Noradrenalin Uptake Inhibition (NA-Uptake Inhibition)
In order to be able to carry out these in vitro studies, synaptosomes from rat brain regions were freshly isolated.

T1 sequence (Q9WTR4 1-597): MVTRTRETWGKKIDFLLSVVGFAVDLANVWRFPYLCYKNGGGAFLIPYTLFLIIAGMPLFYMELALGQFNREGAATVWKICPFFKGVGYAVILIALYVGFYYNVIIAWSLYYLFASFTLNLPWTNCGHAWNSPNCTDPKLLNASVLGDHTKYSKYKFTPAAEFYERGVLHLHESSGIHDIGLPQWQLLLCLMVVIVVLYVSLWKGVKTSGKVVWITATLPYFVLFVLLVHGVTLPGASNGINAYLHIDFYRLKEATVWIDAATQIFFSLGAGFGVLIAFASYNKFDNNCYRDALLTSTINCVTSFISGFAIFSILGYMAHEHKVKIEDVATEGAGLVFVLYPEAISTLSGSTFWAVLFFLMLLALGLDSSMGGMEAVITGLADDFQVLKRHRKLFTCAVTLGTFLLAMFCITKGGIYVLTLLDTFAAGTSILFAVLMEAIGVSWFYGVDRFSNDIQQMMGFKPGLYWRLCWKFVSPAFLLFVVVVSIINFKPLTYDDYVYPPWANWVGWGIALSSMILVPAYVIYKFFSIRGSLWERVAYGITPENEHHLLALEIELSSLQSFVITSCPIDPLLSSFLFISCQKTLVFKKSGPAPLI

| Structure (SMILES) | inhibition at 10 µM | NA-uptake, 10 μM, % inhibition |
| --- | --- | --- |
| CN(C)S(=O)(=O)N1CCC2(CC1)CC(C(=O)NCCc1ccccc1)=NO2 [Example 7, 8-dimethylsulphamoyl-1-oxa-2,8-diaza-spiro[4,5]dec-2-ene-3-carboxylic acid phenethyl-amide] | 50% |  |
| CC(NC(=O)C1=NOC2(CCN(S(=O)(=O)c3cccs3)CC2)C1)c1ccccc1 (centres unmarked) [Example 8, 8-(thiophene-2-sulphonyl)-1-oxa-2,8-diaza-spiro[4,5]dec-2-ene-3-carboxylic acid (1-phenyl-ethyl)-amide] | 48% |  |
| O=C(NCCN1CCCC1)C1=NOC2(CCN(S(=O)(=O)c3ccc(F)c(Cl)c3)CC2)C1 [Example 11] |  | 41% |
| O=C(NCCc1ccccc1)C1=NOC2(CCN(S(=O)(=O)Cc3ccccc3)CC2)C1 [Example 12, 8-phenylmethanesulphonyl-1-oxa-2,8-diaza-spiro[4,5]dec-2-ene-3-carboxylic acid phenethyl-amide] | 54% |  |
| CN(C)CCNC(=O)C1=NOC2(CCN(S(=O)(=O)c3ccccc3)CC2)C1 [Example 13, 8-benzenesulphonyl-1-oxa-2,8-diaza-spiro[4,5]dec-2-ene-3-carboxylic acid (2-dimethylamino-ethyl)-amide] | 43% |  |
| Cc1ccc(S(=O)(=O)N2CCC3(CC2)CC(C(=O)N(CCc2ccccc2)Cc2ccccc2)=NO3)cc1 [Example 18, 8-(toluene-4-sulphonyl)-1-oxa-2,8-diaza-spiro[4,5]dec-2-ene-3-carboxylic acid benzyl-phenethyl-amide] | 64% |  |
| O=C(NC1CCCC1OCc1ccccc1)C1=NOC2(CCN(S(=O)(=O)Cc3ccccc3)CC2)C1 (centres unmarked) [Example 20, 8-phenylmethanesulphonyl-1-oxa-2,8-diaza-spiro[4,5]dec-2-ene-3-carboxylic acid (2-benzyloxy-cyclopentyl)-amide] | 70% |  |
| Cc1ccc(S(=O)(=O)N2CCC3(CC2)CC(C(=O)Nc2ccc(Oc4ccccc4)cc2)=NO3)cc1 [Example 22, 8-(toluene-4-sulphonyl)-1-oxa-2,8-diaza-spiro[4,5]dec-2-ene-3-carboxylic acid (4-phenoxy-phenyl)-amide] | 42% |  |
| Cc1ccc(C(C)NC(=O)C2=NOC3(CCN(S(=O)(=O)c4cccs4)CC3)C2)cc1 (centres unmarked) [Example 23, 8-(thiophene-2-sulphonyl)-1-oxa-2,8-diaza-spiro[4,5]dec-2-ene-3-carboxylic acid (1-p-tolyl-ethyl)-amide] | 49% |  |
| O=C(NCc1ccc2c(c1)OCO2)C1=NOC2(CCN(S(=O)(=O)c3ccc(Cl)s3)CC2)C1 [Example 30, 8-(5-chloro-thiophene-2-sulphonyl)-1-oxa-2,8-diaza-spiro[4,5]dec-2-ene-3-carboxylic acid (benzo[1,3]dioxol-5-ylmethyl)-amide] | 48% |  |
| Cc1ccc(S(=O)(=O)N2CCC3(CC2)CC(C(=O)N2CCN(C(C)c4ccccc4)CC2)=NO3)cc1 (stereo not drawn) [Example 32, [4-(1-phenyl-ethyl)-piperazin-l-yl]-[8-(toluene-4-sulphonyl)-1-oxa-2,8-diaza-spiro[4,5]dec-2-en-3-yl]-methanone] |  | 43% |
| O=C(NCc1cccs1)C1=NOC2(CCN(S(=O)(=O)c3ccc([N+](=O)[O-])cc3)CC2)C1 [Example 38, 8-(4-nitro-benzenesulphonyl)-1-oxa-2,8-diaza-spiro[4,5]dec-2-ene-3-carboxylic acid (thiophen-2-ylmethyl)-amide] | 44% |  |
| Cc1ccc(C(C)NC(=O)C2=NOC3(CCN(S(=O)(=O)c4ccc(C)cc4)CC3)C2)cc1 (centres unmarked) [Example 45, 8-(toluene-4-sulphonyl)-1-oxa-2,8-diaza-spiro[4,5]dec-2-ene-3-carboxylic acid (1-p-tolyl-ethyl)-amide] | 59% |  |
| O=C(NC1CCCC1OCc1ccccc1)C1=NOC2(CCN(S(=O)(=O)c3cccs3)CC2)C1 (centres unmarked) [Example 47, 8-(thiophene-2-sulphonyl)-1-oxa-2,8-diaza-spiro[4,5]dec-2-ene-3-carboxylic acid (2-benzyloxy-cyclopentyl)-amide] | 92% |  |
| Cc1ccc(S(=O)(=O)N2CCC3(CC2)CC(C(=O)NC2CC2c2ccccc2)=NO3)cc1 (centres unmarked) [Example 75, 8-(toluene-4-sulphonyl)-1-oxa-2,8-diaza-spiro[4,5]dec-2-ene-3-carboxylic acid (2-phenyl-cyclopropyl)-amide] | 65% |  |
| O=C(NCCc1cccc(F)c1)C1=NOC2(CCN(S(=O)(=O)Cc3ccccc3)CC2)C1 [Example 78, 8-phenylmethanesulphonyl-1-oxa-2,8-diaza-spiro[4,5]dec-2-ene-3-carboxylic acid [2-(3-fluorophenyl)-ethyl]-amide] | 42% |  |
| O=C(NCC(c1ccccc1)c1ccccc1)C1=NOC2(CCN(S(=O)(=O)c3ccc(Cl)s3)CC2)C1 [Example 79, 8-(5-chloro-thiophene-2-sulphonyl)-1-oxa-2,8-diaza-spiro[4,5]dec-2-ene-3-carboxylic acid (2,2-diphenyl-ethyl)-amide] | 58% |  |
| CN(C)S(=O)(=O)N1CCC2(CC1)CC(C(=O)N1CCN(CCCc3ccccc3)CC1)=NO2 [Example 80, 3-[4-(3-phenyl-propyl)-piperazine-1-carbonyl]-1-oxa-2,8-diaza-spiro[4,5]dec-2-ene-8-sulphonic acid dimethylamide] | 60% |  |
| CN(CCCNC(=O)C1=NOC2(CCN(S(=O)(=O)c3ccc(Cl)s3)CC2)C1)c1ccccc1 [Example 89] |  | 68% |
| O=C(NCc1cccs1)C1=NOC2(CCN(C(=O)COc3cccc(Cl)c3)CC2)C1 [Example 96, 8-[2-(3-chloro-phenoxy)-acetyl]-1-oxa-2,8-diaza-spiro[4,5]dec-2-ene-3-carboxylic acid (thiophen-2-ylmethyl)-amide] | 49% |  |
| O=C(C1=NOC2(CCN(S(=O)(=O)c3ccc(OC(F)(F)F)cc3)CC2)C1)N(CCc1ccccc1)Cc1ccccc1 [Example 97, 8-(4-trifluoromethoxy-benzenesulphonyl)-1-oxa-2,8-diaza-spiro[4,5]dec-2-ene-3-carboxylic acid benzyl-phenethyl-amide] | 83% |  |
| O=C(C1=NOC2(CCN(S(=O)(=O)c3cc(Cl)ccc3Cl)CC2)C1)N(CCc1ccccc1)Cc1ccccc1 [Example 98, 8-(2,5-dichloro-benzenesulphonyl)-1-oxa-2,8-diaza-spiro[4,5]dec-2-ene-3-carboxylic acid benzyl-phenethyl-amide] | 82% |  |
| O=C(NCc1ccccc1)C1=NOC2(CCN(C(=O)c3ccncc3)CC2)C1 [Example 102, 8-(pyridine-4-carbonyl)-1-oxa-2,8-diaza-spiro[4,5]dec-2-ene-3-carboxylic acid benzylamide] | 48% |  |
| C=C(C)CN(CC)C(=O)C1=NOC2(CCN(S(=O)(=O)c3ccc(OC(F)(F)F)cc3)CC2)C1 [Example 103, 8-(4-trifluoromethoxy-benzenesulphonyl)-1-oxa-2,8-diaza-spiro[4,5]dec-2-ene-3carboxylic acid ethyl-(2-methyl-allyl)-amide] | 47% |  |
| Cc1oc(C(C)(C)C)cc1C(=O)N1CCC2(CC1)CC(C(=O)NCC(C)C)=NO2 [Example 105, 8-(5-tert-butyl-2-methyl-furan-3-carbonyl)-1-oxa-2,8-diaza-spiro[4,5]dec-2-ene-3-carboxylic acid isobutyl-amide] | 53% |  |
| O=C(NCc1cccs1)C1=NOC2(CCN(C(=O)C=Cc3ccccc3)CC2)C1 [Example 106] |  | 47% |
